These results are taken from patent publication US9957253B2, “Triaminopyrimidine compounds useful for preventing or treating malaria” (MMV MEDICINES FOR MALARIA VENTURE, priority 2014, dated 2018).

Counter-ions that a name gives are not always drawn. Like-named read-outs stand apart in the source and are kept apart here.

By IC50 is commonly meant the concentration at which inhibition is half-maximal.

One data set concerns the target T1, human CYP 2D6 (Homo sapiens, UniProt P10635).
T1 construct: Mixture of 180 μL of 20 mg/mL HLM and 90 μL of substrate cocktail solution; from tissue; host or cells: human liver microsomes (HLM)
Kind of data set: CYP inhibition assay, CYP 2D6. It counts as in vitro ADME. The protocol: (§1) This study was conducted using specific substrates for 5 major human CYP isozymes. These substrates were used as a cocktail (phenacetin, diclofenac, S-mephenytoin, bufuralol and midazolam which are predominantly metabolised by CYP 1A2, 2C9, 2C19, 2D6 and 3A4/5, respectively) at concentrations equivalent to their respective Km values. LC-MS-MS (MRM mode) was used to follow the formation of the CYP specific metabolites. A decrease in the formation of the metabolites in peak area to vehicle control was used to calculate the IC50 value. […] Test compound was used at 6 different concentrations ([…]) to estimate IC50.
(§2) The incubation was carried out in 96 deep well plates. Mixture of 180 μL of 20 mg/mL HLM and 90 μL of substrate cocktail solution was added to 15840 μL of phosphate buffer and 179 μL of this mixture was mixed with 1 μL of the test compound, inhibitor cocktail solution or vehicle in each well. The final concentration of DMSO:ACN in the assay mix was 0.3:0.7% v/v. The incubation plate was placed into the water bath and pre-warmed at 37° C. for 5 min before the reactions were started by the addition of 20 μL of 10 mmol/L NADPH solution in phosphate buffer. After the addition of NADPH, the incubation plate was incubated at 37° C. for a further 5 min. The reaction was quenched by the addition of 1 volume (200 μL) of cold ACN containing 3% formic acid and 40 nmol/L verapamil. The plates were kept on ice for 20 min and then centrifuged at 4000 rpm for 30 min to precipitate protein. The supernatant 180 μL was transferred to the analysis plate for LC/MS/MS analysis.

The next data set deals with CYP3A4 (Homo sapiens, UniProt P08684). The data set is described as follows: Time dependent CYP inhibition assay, CYP 3A4. It counts as in vitro ADME.
Chain of CYP3A4 (P08684 whole entry): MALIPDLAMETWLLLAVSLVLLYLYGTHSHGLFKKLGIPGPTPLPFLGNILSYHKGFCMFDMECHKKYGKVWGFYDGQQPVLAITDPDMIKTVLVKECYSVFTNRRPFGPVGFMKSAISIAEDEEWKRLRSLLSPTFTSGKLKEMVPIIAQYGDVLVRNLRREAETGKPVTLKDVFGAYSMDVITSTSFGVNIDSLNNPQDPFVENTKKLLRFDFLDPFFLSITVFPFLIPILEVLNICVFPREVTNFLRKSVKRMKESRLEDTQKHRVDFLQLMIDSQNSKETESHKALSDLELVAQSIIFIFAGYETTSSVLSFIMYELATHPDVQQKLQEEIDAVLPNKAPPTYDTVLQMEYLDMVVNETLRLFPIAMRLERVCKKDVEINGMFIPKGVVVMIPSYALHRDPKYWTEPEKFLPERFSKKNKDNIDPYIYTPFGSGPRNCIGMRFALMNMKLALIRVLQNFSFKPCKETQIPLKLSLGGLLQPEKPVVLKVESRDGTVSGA
Data set [1] is described as follows: Plasma protein binding assay (equilibrium dialysis), rat. Format: in vitro ADME. The protocol:
(§3) Plasma Protein Binding Assay
(§4) Protein binding is measured using the equilibrium dialysis technique. Compound is added to 10% plasma giving a concentration of 20 μM and dialysed with isotonic buffer for 18 hours at 37° C. The plasma and buffer solutions are analysed using generic LCUVMS and the first apparent binding constant for the compound derived. The binding constant is then used to determine the % free in 100% plasma.
(Equilibrium dialysis compares concentrations on both sides of a semipermeable membrane.)

Data set [2] can be described thus: Pharmacokinetic studies (IVPK/POPK) in male Wistar rats. The following applies: Rat; for Oral ‘F’ / ½ life (PO PK): 5 mg/kg Examples 7 and 10, 10 mg/kg Example 13; for clearance / Vd: male, Wistar, IV bolus, 0.5 mg/kg Examples 7 and 10, 2 mg/kg Example 13; for clearance: read-out: CL blood; for Vd: read-out: Vss blood. Format: in vivo. As to the method: All in vivo studies were approved by the institutional animal ethics committee. Pharmacokinetics following IV bolus (IVPK) or oral administration (POPK) of compounds was determined in male Wistar rats or male Beagle dogs. For IVPK in rats, Example 7 and Example 10 were administered as solutions in 20% DMA, 80% phosphate-buffered saline and Example 13 was administered as a solution in 10% v/v NMP, 20% v/v DMA in saline. For POPK, Example 7 and Example 10 were administered as suspensions in 20% DMA, 80% phosphate buffered saline and Example 13 was administered as a suspension in 0.5% HPMC and 0.1% Tween 80 through an oral gavage. Example 13 was administered to dogs as a solution in 10% Ethanol, 30% PEG 400, 60% saline for IVPK and as a suspension in 0.5% HPMC, and 0.1% Tween 80 for POPK. Doses used for rat and dog PK were 0.5 mg/kg for Examples 7 and 10 or 2 mg/kg for Example 13 (IVPK). Doses of 5 mg/kg for Examples 7 and 10 were used during POPK. Doses of 10 mg/kg were used for Example 13 during POPK studies. Blood samples were collected at 8 to 13 time points (0, 0.0833, 0.25, 0.283, 0.333, 0.417, 0.75, 1.25, 3.25, 6.25, 12.25, 24.25 h for dog IVPK; 0, 0.25, 0.5, 1, 1.5, 2, 3, 4, 8, 12, 24, 32, 48 h for dog POPK; 0.083, 0.25, 0.5, 1, 2, 4, 7, 24 h for rat IVPK; 0.25, 1, 3, 6, 12, 24, 36, 48 h for rat POPK) after dosing. Blood (rat) or plasma (dog) samples were analysed by LC-MS/MS. PK parameters were estimated by non-compartmental analysis in Phoenix®.

Data set [3] can be described thus: Plasma protein binding assay (equilibrium dialysis), human. Format: in vitro ADME. The protocol:
as §3, §4

Data set [4] concerns chloroquine-resistant K1 strain of P. falciparum. Kind of data set: In vitro antiplasmodial activity (SYBR I), K1 strain. It counts as cell-based, Plasmodium falciparum. Conditions: Plasmodium falciparum. As to the method: (§5) Measuring In Vitro Antiplasmodial Activity
(§6) The test samples were tested in duplicate on two separate occasions against chloroquine sensitive NF54 (MRA-1000, MR4, ATCC, Manassas, Va.) and chloroquine-resistant K1 strains of P. falciparum. A modified method of Trager and Jensen was employed to maintain continuous in vitro cultures of asexual blood stages of P. falciparum (Trageret al., 1976, Science, 193, 673-675). Quantitative assessment of antiplasmodial activity in vitro was determined using the SYBR I method as described earlier (Johnson et al., 2007, Antimicrob. Agents Chemother., 51, 1926-1933).
(§7) The percent inhibition with respect to the drug-free control was plotted against the logarithm of drug concentration. The growth inhibition curves were fitted by nonlinear regression using the sigmoidal dose-response (variable slope) formula to yield the concentration-response curves. […] Chloroquine diphosphate (CQ) (Sigma), artesunate (Sigma), and pyrimethamine were used as reference drugs in all experiments.

Data set [5] concerns chloroquine sensitive NF54 strain of P. falciparum. Kind of data set: In vitro antiplasmodial activity (SYBR I), NF54 strain. Format: cell-based, Plasmodium falciparum. The following applies: Plasmodium falciparum. The protocol: as §5, §6, §7
In a further data set the target is T2, human CYP 2C19 (Homo sapiens, UniProt P33261).
T2 construct: Mixture of 180 μL of 20 mg/mL HLM and 90 μL of substrate cocktail solution; from tissue; host or cells: human liver microsomes (HLM)
T2 sequence (P33261 whole entry): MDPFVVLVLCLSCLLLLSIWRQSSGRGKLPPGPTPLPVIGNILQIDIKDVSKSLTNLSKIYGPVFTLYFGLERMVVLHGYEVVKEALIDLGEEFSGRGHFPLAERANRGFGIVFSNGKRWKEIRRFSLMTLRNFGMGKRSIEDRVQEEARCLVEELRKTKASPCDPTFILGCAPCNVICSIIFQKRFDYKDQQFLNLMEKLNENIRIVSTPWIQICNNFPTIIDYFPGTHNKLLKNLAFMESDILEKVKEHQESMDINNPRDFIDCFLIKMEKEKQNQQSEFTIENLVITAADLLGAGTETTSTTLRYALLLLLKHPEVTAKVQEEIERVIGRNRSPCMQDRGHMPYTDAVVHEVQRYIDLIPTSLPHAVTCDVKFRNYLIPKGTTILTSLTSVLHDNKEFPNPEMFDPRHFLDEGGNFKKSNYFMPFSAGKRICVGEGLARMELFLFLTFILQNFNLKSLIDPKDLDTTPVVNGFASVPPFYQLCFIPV
Kind of data set: CYP inhibition assay, CYP 2C19. Format: in vitro ADME. The protocol: as §1, §2

Data set [6] can be described thus: Prediction of human PK parameters (well stirred model). Conditions: from human hepatocyte Clint and fu. From the text: Prediction of Human Pharmacokinetic (PK) Parameters Well stirred model was used for predicting human CL using human hepatocyte Clint and free fraction (fu) in human plasma. Liver blood flow rates, liver weights, hepatocellularity and in vitro in vivo correlation/extrapolation (IVIVC/E) templates routinely employed (Smith et al., Pharmacokinetics and Metabolism in Drug Design, Methods and Principles in Medicinal Chemistry Volume 13, 2004, Wiley-VCH, Weinheim, Germany) were used for prediction.

The nature of data set [7]: Blood:Plasma (BP) ratio, rat. It counts as in vitro ADME.
The mark [8] stands for this setting: human liver microsomes, substrate cocktail, read-out: IC50 CYP 2D6.
Setting [9] is: K1 strain, chloroquine-resistant, read-out: Pf IC50—K1.
Setting [10] is: NF54 strain, chloroquine sensitive, read-out: Pf IC50—NF54.
[11] abbreviates: human liver microsomes, substrate cocktail, read-out: IC50 CYP 2C19.

T1 sequence (P10635 whole entry): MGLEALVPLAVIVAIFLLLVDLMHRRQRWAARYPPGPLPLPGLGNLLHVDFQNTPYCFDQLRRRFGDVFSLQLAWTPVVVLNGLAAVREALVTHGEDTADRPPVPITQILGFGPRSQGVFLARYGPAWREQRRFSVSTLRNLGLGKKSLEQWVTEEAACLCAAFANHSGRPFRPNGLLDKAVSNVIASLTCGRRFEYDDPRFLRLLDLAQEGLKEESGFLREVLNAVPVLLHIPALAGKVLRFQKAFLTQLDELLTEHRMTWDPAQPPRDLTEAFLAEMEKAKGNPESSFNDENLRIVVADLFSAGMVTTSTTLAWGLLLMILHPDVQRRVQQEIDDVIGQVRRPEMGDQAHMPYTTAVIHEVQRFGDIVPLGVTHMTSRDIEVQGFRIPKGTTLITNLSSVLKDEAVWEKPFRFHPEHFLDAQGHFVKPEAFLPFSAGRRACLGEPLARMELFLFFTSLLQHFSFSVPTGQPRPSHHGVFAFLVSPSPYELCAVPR

On to `Cc1nc(Nc2ncc(N3CCN[C@H](C)C3)c(Nc3cnn(C)n3)n2)cc(C2CC2)c1Cl` [Example 10, (R)—N2-(5-chloro-4-cyclopropyl-6-methylpyridin-2-yl)-N4-(2-methyl-2H-1,2,3-triazol-4-yl)-5-(3-methylpiperazin-1-yl)pyrimidine-2,4-diamine dihydochloride], for which the IC50 on human CYP 2D6 (setting [8]) is greater than 30 µM; against CYP3A4 it was greater than 56 µM; in data set [4] (setting [9]), 19 nM; in data set [5] (setting [10]), 13 nM; on human CYP 2C19 (setting [11]) it was greater than 30 µM. Moreover, the Fup in [1] and in data set [3] was 0.04 in each case. In addition, the “Oral ‘F’” value in [2] was 17%. Besides, the “½ life (PO PK)” value in data set [2] is on record as 30 h. For the same compound, the clearance in data set [2] (blood) worked out at 22.5 mL/min/kg. For the same compound, the Vd in data set [2] (blood) came out at 9.7 L/kg. The “Predicted CLh blood” value in [6] was 3.10 mL/min/kg. Also, the BP ratio in data set [7] is recorded as 1.7.
With `CCc1cc(Nc2ncc(N3CCN[C@H](C)C3)c(Nc3cc(C)n(C)n3)n2)nc(C)c1F` [Example 7, (R)—N4-(1,5-dimethyl-1H-pyrazol-3-yl)-N2-(4-ethyl-5-fluoro-6-methylpyridin-2-yl)-5-(3-methylpiperazin-1-yl)pyrimidine-2,4-diamine dihydrochloride], the IC50 at human CYP 2D6 was greater than 30 µM; against CYP3A4, greater than 56 µM; in data set [4] (K1, read-out: Pf IC50—K1), 45 nM; in [5] (NF54, read-out: Pf IC50—NF54), 27 nM; on human CYP 2C19 it was greater than 30 µM. In addition, the Fup stood at 0.06 in data set [1] and 0.03 in data set [3]. The “Oral ‘F’” value in data set [2] was found to be 31%. Also, the “½ life (PO PK)” value in [2] turned out to be 10 h. In addition, in data set [2] (in vivo), the clearance is 26.6 mL/min/kg. Further, the Vd in data set [2] (in vivo) stood at 12 L/kg. In [6], the “Predicted CLh blood” value is 3.30 mL/min/kg. The BP ratio in data set [7] is 2.2.
Turning to `Cc1nc(Nc2ncc(N3CCN(C)[C@H](C)C3)c(Nc3cc(C)n(C)n3)n2)cc(C2CC2)c1F` [Example 13, (R)—N2-(4-cyclopropyl-5-fluoro-6-methylpyridin-2-yl)-N4-(1,5-dimethyl-1H-pyrazol-3-yl)-5-(3,4-dimethylpiperazin-1-yl)pyrimidine-2,4-diamine], the IC50 on human CYP 2D6 (setting [8]) was greater than 30 µM; against CYP3A4, greater than 56 µM; in data set [4] (setting [9]), 15 nM; in data set [5] (setting [10]) it was 9 nM; at human CYP 2C19 (setting [11]), greater than 30 µM. In addition, the figures for the Fup in [1] and in data set [3] were 0.04 and 0.03, respectively. The “Oral ‘F’” value in data set [2] came out at 80%. The “½ life (PO PK)” value in data set [2] was 10 h. In addition, in [2] (blood), the clearance came to 9.8 mL/min/kg. Further, the Vd in [2] (blood) amounted to 7.9 L/kg. In addition, in data set [6], the “Predicted CLh blood” value was 4.80 mL/min/kg. Besides, the BP ratio in [7] came out at 1.06.
